Measured values: EP4653437A2 (Innovo Therapeutics Inc., priority 2023, dated 2024)

Key:
[1] = target: T1, human 15-PGDH (Homo sapiens, UniProt P15428); assay: Evaluation of 15-PGDH inhibitory activity (fluorescence enzyme assay, NAD+/PGE2); format: biochemical; details: human 15-PGDH enzyme, fluorescence Vmax
T1 construct: purchased R&D System 5660-DH
T1 sequence (P15428 1-266): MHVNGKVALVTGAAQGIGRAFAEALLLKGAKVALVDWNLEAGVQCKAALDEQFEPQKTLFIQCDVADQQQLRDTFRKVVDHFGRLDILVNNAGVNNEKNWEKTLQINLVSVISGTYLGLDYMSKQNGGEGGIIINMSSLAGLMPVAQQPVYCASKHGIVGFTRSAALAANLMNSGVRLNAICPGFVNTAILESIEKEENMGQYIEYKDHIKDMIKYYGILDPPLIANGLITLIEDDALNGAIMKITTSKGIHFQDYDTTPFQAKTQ
Procedure: 15-PGDH inhibition activity of Example compounds was measured as follows. 6.7 ng of human 15-PGDH (R&D System# 5660-DH) enzyme (10 µL) was added to a black 96 well plate, 60 µL of buffer (50 mM Tris-HCl, pH 7.5, 0.01% Tween 20) was added, and 10 µL of 200 µM β-Nicotinamide adenine dinucleotide sodium salt (Sigma, Cat# N0632-5G) was added. 10 µL of (10x) compound solution in DMSO was added and reacted for 10 minutes at room temperature.

[2] = test system: A549 cells; assay: Measurement of PGE2-increasing activity in A549 cells (IL-1β stimulated, PGE2 quantified in supernatant); format: cell-based; details: Homo sapiens, 24 h; concentration of 1 µM of each compound; IL-1β treated A549 cells; read-out: Increased PGE2 production in A549 cells
Method in brief: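 PGE2 secreted into the supernatant was measured by immunoassay 24 h after treatment. Before treatment, A549 cells were cultured 24 h in 10% FBS F12K, washed, and placed in serum-free medium containing compound (DMSO 0.1% final) plus or minus IL-1β, incubated at 37 °C, 5% CO2.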

IC50 [1] [nM] | Structure (SMILES) | fold induction at 1 µM [2]
≤ 100 | Cn1cnc2ccc(-c3cccc4c(C(=O)N5CCCCC5)cnn34)cc2c1=O [Example 245, 3-methyl-6-(3-(piperidine-1-carbonyl)pyrazolo[1,5-a]pyridin-7-yl)quinazolin-4(3H)-one] | > 1.5
≤ 100 | Cn1nccc1-c1cc(-c2cccc3c(C(=O)N4CCCCC4)cnn23)cc(N2CC(O)C2)n1 [Example 357, (7-(2-(3-hydroxyazetidin-1-yl)-6-(1-methyl-1H-pyrazol-5-yl)pyridin-4-yl)pyrazolo[1,5-a]pyridin-3-yl)(piperidin-1-yl)methanone] | > 1.5
≤ 100 | N#CCNC(=O)c1cncc(-c2cccc3c(C(=O)N4CCCCC4)cnn23)c1 [Example 52, N-(cyanomethyl)-5-(3-(piperidine-1-carbonyl)pyrazolo[1,5-a]pyridin-7-yl)nicotinamide] | > 1.5
≤ 100 | O=C(c1cnn2c(-c3ccc(F)c(-c4noc(=O)[nH]4)c3)cccc12)N1CCCCC1 [Example 275, 3-[2-fluoro-5-[3-(piperidine-1-carbonyl)pyrazolo[1,5-a]pyridin-7-yl]phenyl]-4H-1,2,4-oxadiazol-5-one] | > 1.5
≤ 100 | O=C(c1cncc(-c2cccc3c(C(=O)N4CCCCC4)cnn23)c1)N1CCOCC1 [Example 39, (7-(5-(morpholine-4-carbonyl)pyridin-3-yl)pyrazolo[1,5-a]pyridin-3-yl)(piperidin-1-yl)methanone] | < 1.5
≤ 100 | O=C1NCc2ccc(-c3cccc4c(C(=O)N5CCC(F)CC5)cnn34)cc21 [Example 155, 6-(3-(4-fluoropiperidine-1-carbonyl)pyrazolo[1,5-a]pyridin-7-yl)isoindolin-1-one] | > 1.5
≤ 100 | O=C(Nc1ccc(-c2cccc3c(C(=O)N4CCCCC4)cnn23)cc1)C1CC1 [Example 100, N-(4-(3-(piperidine-1-carbonyl)pyrazolo[1,5-a]pyridin-7-yl)phenyl)cyclopropanecarboxamide] | > 1.5
≤ 100 | O=C(c1cnn2c(-c3ccc(N4CC(F)(F)C4)nc3)cccc12)N1CCCCC1 [Example 209, (7-(6-(3,3-difluoroazetidin-1-yl)pyridin-3-yl)pyrazolo[1,5-a]pyridin-3-yl)(piperidin-1-yl)methanone] | > 1.5
≤ 100 | O=C(Cc1ccc(C(F)(F)F)nc1)Nc1cncc(-c2cccc3c(C(=O)N4CCCCC4)cnn23)c1 [Example 388, N-(5-(3-(piperidine-1-carbonyl)pyrazolo[1,5-a]pyridin-7-yl)pyridin-3-yl)-2-(6-(trifluoromethyl)pyridin-3-yl)acetamide] | > 1.5
≤ 100 | Nc1ccc(-c2cccc3c(C(=O)N4CCCCC4)cnn23)cn1 [Example 17, (7-(6-aminopyridin-3-yl)pyrazolo[1,5-a]pyridin-3-yl)(piperidin-1-yl)methanone] | < 1.5
≤ 100 | O=C(c1cnn2c(NCCc3ccncc3)cccc12)N1CCCCC1 [Example 149, piperidin-1-yl(7-((2-(pyridin-4-yl)ethyl)amino)pyrazolo[1,5-a]pyridin-3-yl)methanone] | > 1.5
≤ 100 | N#Cc1ccc(-c2cccc3c(C(=O)N4CCCCC4)cnn23)cn1 [Example 18, 5-(3-(piperidine-1-carbonyl)pyrazolo[1,5-a]pyridin-7-yl)picolinonitrile] | > 1.5
≤ 100 | Cn1cnc2ncc(-c3cccc4c(C(=O)N5CCCCC5)cnn34)cc2c1=O [Example 255, 3-methyl-6-(3-(piperidine-1-carbonyl)pyrazolo[1,5-a]pyridin-7-yl)pyrido[2,3-d]pyrimidin-4(3H)-one] | > 1.5
